Source: US20220031687A1, “SYNERGIC PHARMACEUTICAL COMBINATION OF A LEUKOTRIENE-RECEPTOR ANTAGONIST AND AN INVERSE AGONIST OF HISTAMINE HI” (priority 2018, published 2022)

Assays:
[1] = cited from earlier work
[2] = cited from earlier work; for bioavailability / time to maximum plasma concentration: oral administration
[3] = tested on: rat tracheal rings; test: LTD4-induced contraction of isolated rat tracheal rings; assay type: cell-based
Text: . The thoracic cavity was exposed, the neck was dissected, and the trachea was removed 1 mm above the tracheal bifurcation and 1 mm below the thyroid cartilage. The sample was submerged in cold Krebs-Henseleit solution bubbled with 95% 02 and 5% CO2, and 3 mm-thick rings were cut. Each ring was placed in an isolated organ chamber, with its bottom anchored by means of a stainless-steel hook and another hook connected to a tension transducer. The chamber was then filled with Krebs-Henseleit solution at 36° C. bubbled with 95% 02 and 5% CO2, pH 7.4±0.5. Two washes were performed, and a 1.5 g load was applied to each ring and were left to rest for 60 minutes. […]
(§1) The antagonist's effects to their own agonists were analyzed using dose-response curves of the agonists in tracheal rings incubated with different antagonists' concentrations. […]
(§2) The half maximal effective concentration (EC50) of each dose-response curve of the analyzed agonists was obtained using the sigmoid model, wherein: y=a+(b−a)/(1+10^(logx0-x)*x p)). […]
(§3) Data are presented as mean±standard deviation of 2 rings obtained from each of the tracheas of 5 rats. Data were analyzed with the one-way ANOVA test with a Dunett's post-test. EC50's were determined by means of the sigmoid model and the 40 percent of effects was obtained using a linear regression. The t and T values were determined based on a t-values table.

[4] = tested on: rat tracheal rings; test: Histamine-induced contraction of isolated rat tracheal rings; assay type: cell-based
Text: Male Wistar rats 300-350 g were sacrificed with a phenobarbital sodium overdose given by intraperitoneal route. The thoracic cavity was exposed, the neck was dissected, and the trachea was removed 1 mm above the tracheal bifurcation and 1 mm below the thyroid cartilage. The sample was submerged in cold Krebs-Henseleit solution bubbled with 95% 02 and 5% CO2, and 3 mm-thick rings were cut. Each ring was placed in an isolated organ chamber, with its bottom anchored by means of a stainless-steel hook and another hook connected to a tension transducer. The chamber was then filled with Krebs-Henseleit solution at 36° C. bubbled with 95% 02 and 5% CO2, pH 7.4±0.5. […]
as §1, §2, §3

Q: With CC(C)(O)c1ccccc1CC[C@@H](SCC1(CC(=O)O)CC1)c1cccc(/C=C/c2ccc3ccc(Cl)cc3n2)c1 [montelukast, 1-[[[(1R)-1-[3-[(1E)-2-(7-chloro-2-quinolinyl)ethenyl]phenyl]-3-[2-(1-hydroxy-1-methylethyl)phenyl]propyl]thio]methyl] cyclopropaneacetic acid] as the molecule, how does the plasma protein binding [1] read?
A: 99%

Q: What about the biological half-life ([2]; in vivo) of the same molecule?
A: 2.7-5.5 hours

Q: What about the bioavailability [2] of the same molecule?
A: 64%

Q: What about the “time to maximum plasma concentration” value [2] of the same molecule?
A: 2 to 4 h

Q: And the “blocking of the contraction induced by the highest LTD4 concentration” value ([3]; 30 μM montelukast)?
A: 75%

Q: With NCCc1c[nH]cn1 [histamine, 2-(4-imidazol) ethylamine] as the molecule, how does the EC50 ([4]; Rattus norvegicus, cumulative administration, normalised to acetylcholine 0.1 mM = 100%, read-out: EC50 of concentration-dependent contraction of rat tracheal rings) read?
A: 3.54 µM

Q: Which plasma protein binding [1] does the source give for CN1CCC(=C2c3ccccc3CC(=O)c3sccc32)CC1 [ketotifen, 4,9-Dihydro-4-(1-methyl-4-piperidylidene)-10H-benzo(4,5)cyclohepta[1,2-b]thiophen-10-one] here?
A: 75%

Q: What about the “excreted in urine as metabolites” value ([2]; first 48 hours) of the same molecule?
A: 60 to 70%

Q: And the “excreted unaltered in urine” value ([2]; first 48 hours)?
A: Approximately 1%

Q: What about the “first pass effect of the liver metabolism” value ([2]; glucuronidation and demethylation) of the same molecule?
A: approximately 50%

Q: And the “long half-life (biphasic elimination)” value ([2]; in vivo)?
A: 21 h

Q: And the “short half-life (biphasic elimination)” value ([2]; in vivo)?
A: 3 to 5 h

Q: And the therapeutic plasma concentrations ([2]; in vivo)?
A: 1 to 4 µg/mL

Q: What about the bioavailability [2] of the same molecule?
A: approximately 50%

Q: And the “time to maximum plasma concentration” value [2]?
A: 2 to 4 h

Q: What about the fecal excretion ([2]; up to) of the same molecule?
A: 30 to 40%

Q: And the “blocking of the contraction induced by the highest histamine concentration” value ([4]; 100 μM ketotifen)?
A: 65%

Q: Which EC50 ([3]; cumulative administration, normalised to acetylcholine 0.1 mM = 100%, read-out: EC50 of concentration-dependent contraction of rat tracheal rings) does the source give for CCCCC/C=C\C\C=C/C=C/C=C/[C@@H](SC[C@H](N)C(=O)NCC(=O)O)[C@@H](O)CCCC(=O)O [LTD4, leukotriene D4] here?
A: 0.0426 µM
